Laboratory results published in US8551937B2, “Peptide having an extending action for half-life of object peptide in plasma” (priority 2008, dated 2013).
Where a SMILES comes first, the peptide text is derived from it.

Assay: Motilin immunoreactivity concentration in plasma, half-life after intravenous administration (Example 6)
Assay type: in vivo, rat
Conditions: SD, rat, plasma, 10 nmol/kg, male rats, N = 3, read-out: T½ Mean Value
Protocol: The experiment was carried out using rats into which polyethylene tube (PE-50 manufactured by Clay Adams) was previously inserted into thigh artery under an anesthetized condition with Nembutal. As to a test system, male SD strain rats (Nippon Charles River) of 7 weeks age were used where one group comprised 3 rats. Human type motilin or a derivative thereof in a dose of 10 nmol/kg was administered into tail vein of the rat and the blood before the administration and until 60 minutes after the administration was collected by a polyethylene tube inserted into the thigh artery. To the collected blood were added EDTA (manufactured by Dojin Laboratories) and aprotinin (manufactured by Bayer) as a stabilizer and an anti-coagulant, respectively and the plasma was separated therefrom by centrifugal separation.

| half-life [min] | SMILES |
| --- | --- |
| 11.7 | CC[C@H](C)[C@H](NC(=O)[C@@H]1CCCN1C(=O)[C@@H](NC(=O)[C@@H](N)Cc1ccccc1)C(C)C)C(=O)N[C@@H](Cc1ccccc1)C(=O)N[C@H](C(=O)N[C@@H](Cc1ccc(O)cc1)C(=O)NCC(=O)N[C@@H](CCC(=O)O)C(=O)N[C@@H](CC(C)C)C(=O)N[C@@H](CCC(N)=O)C(=O)N[C@@H](CCCNC(=N)N)C(=O)N[C@@H](CO)C(=O)N1CCC[C@H]1C(=O)N[C@@H](CCC(=O)O)C(=O)N[C@@H](Cc1c[nH]cn1)C(=O)N[C@@H](CCC(N)=O)C(=O)N[C@@H](CCCNC(=N)N)C(=O)N[C@H](C(=O)N[C@@H](CCC(N)=O)C(=O)N[C@@H](CCC(N)=O)C(=O)N[C@@H](CCCNC(=N)N)C(=O)N[C@@H](CCCCN)C(=O)N[C@@H](CCC(=O)O)C(=O)N[C@@H](CO)C(=O)N[C@@H](CCCCN)C(=O)N[C@@H](CCCCN)C(=O)N1CCC[C@H]1C(=O)N1CCC[C@H]1C(=O)N[C@@H](C)C(=O)N[C@@H](CCCCN)C(=O)N[C@@H](CC(C)C)C(=O)N[C@@H](CCC(N)=O)C(=O)N1CCC[C@H]1C(=O)N[C@@H](CCCNC(=N)N)C(=O)O)C(C)C)[C@@H](C)O [Chimeric motilin (A)] (H-FVPIFTYGELQRSPEHQRVQQRKESKKPPAKLQPR-OH; N-terminus and C-terminus assumed) |
| 11.1 | CC[C@H](C)[C@H](NC(=O)[C@@H]1CCCN1C(=O)[C@@H](NC(=O)[C@@H](N)Cc1ccccc1)C(C)C)C(=O)N[C@@H](Cc1ccccc1)C(=O)N[C@H](C(=O)N[C@@H](Cc1ccc(O)cc1)C(=O)NCC(=O)N[C@@H](CCC(=O)O)C(=O)N[C@@H](CC(C)C)C(=O)N[C@@H](CCC(N)=O)C(=O)N[C@@H](CCCNC(=N)N)C(=O)N[C@@H](CCC(=O)O)C(=O)N[C@@H](Cc1c[nH]cn1)C(=O)N[C@@H](CCC(N)=O)C(=O)N[C@@H](CCCNC(=N)N)C(=O)N[C@H](C(=O)N[C@@H](CCC(N)=O)C(=O)N[C@@H](CCC(N)=O)C(=O)N[C@@H](CCCNC(=N)N)C(=O)N[C@@H](CCCCN)C(=O)N[C@@H](CCC(=O)O)C(=O)N[C@@H](CO)C(=O)N[C@@H](CCCCN)C(=O)N[C@@H](CCCCN)C(=O)N1CCC[C@H]1C(=O)N1CCC[C@H]1C(=O)N[C@@H](C)C(=O)N[C@@H](CCCCN)C(=O)N[C@@H](CC(C)C)C(=O)N[C@@H](CCC(N)=O)C(=O)N1CCC[C@H]1C(=O)N[C@@H](CCCNC(=N)N)C(=O)O)C(C)C)[C@@H](C)O [Chimeric motilin (B)] (H-FVPIFTYGELQREHQRVQQRKESKKPPAKLQPR-OH; N-terminus and C-terminus assumed) |
| 8.9 | CC[C@H](C)[C@H](NC(=O)[C@@H]1CCCN1C(=O)[C@@H](NC(=O)[C@@H](N)Cc1ccccc1)C(C)C)C(=O)N[C@@H](Cc1ccccc1)C(=O)N[C@H](C(=O)N[C@@H](Cc1ccc(O)cc1)C(=O)NCC(=O)N[C@@H](CCC(=O)O)C(=O)N[C@@H](CC(C)C)C(=O)N[C@@H](CCC(N)=O)C(=O)N[C@@H](CCCNC(=N)N)C(=O)N[C@@H](CCC(N)=O)C(=O)N[C@@H](CCCNC(=N)N)C(=O)N[C@H](C(=O)N[C@@H](CCC(N)=O)C(=O)N[C@@H](CCC(N)=O)C(=O)N[C@@H](CCCNC(=N)N)C(=O)N[C@@H](CCCCN)C(=O)N[C@@H](CCC(=O)O)C(=O)N[C@@H](CO)C(=O)N[C@@H](CCCCN)C(=O)N[C@@H](CCCCN)C(=O)N1CCC[C@H]1C(=O)N1CCC[C@H]1C(=O)N[C@@H](C)C(=O)N[C@@H](CCCCN)C(=O)N[C@@H](CC(C)C)C(=O)N[C@@H](CCC(N)=O)C(=O)N1CCC[C@H]1C(=O)N[C@@H](CCCNC(=N)N)C(=O)O)C(C)C)[C@@H](C)O [Chimeric motilin (C)] (H-FVPIFTYGELQRQRVQQRKESKKPPAKLQPR-OH; N-terminus and C-terminus assumed) |
| 8.03 | CC[C@H](C)[C@H](NC(=O)[C@@H]1CCCN1C(=O)[C@@H](NC(=O)[C@@H](N)Cc1ccccc1)C(C)C)C(=O)N[C@@H](Cc1ccccc1)C(=O)N[C@H](C(=O)N[C@@H](Cc1ccc(O)cc1)C(=O)NCC(=O)N[C@@H](CCC(=O)O)C(=O)N[C@@H](CC(C)C)C(=O)N[C@@H](CCC(N)=O)C(=O)N[C@@H](CCCNC(=N)N)C(=O)N[C@@H](CCC(N)=O)C(=O)N[C@@H](CCCNC(=N)N)C(=O)N[C@@H](CCCCN)C(=O)N[C@@H](CCC(=O)O)C(=O)N[C@@H](CO)C(=O)N[C@@H](CCCCN)C(=O)N[C@@H](CCCCN)C(=O)N1CCC[C@H]1C(=O)N1CCC[C@H]1C(=O)N[C@@H](C)C(=O)N[C@@H](CCCCN)C(=O)N[C@@H](CC(C)C)C(=O)N[C@@H](CCC(N)=O)C(=O)N1CCC[C@H]1C(=O)N[C@@H](CCCNC(=N)N)C(=O)O)[C@@H](C)O [Chimeric motilin (E)] (H-FVPIFTYGELQRQRKESKKPPAKLQPR-OH; N-terminus and C-terminus assumed) |

Assay: Motilin immunoreactivity concentration in plasma, half-life after intravenous administration (Example 8)
Conditions: male, SD, rat, in vivo, iv, 10 nmol/kg
In short: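 Male SD rats (7 weeks, n=3/group) received human motilin or derivative at 10 nmol/kg i.v. via tail vein; arterial blood was sampled up to 60 min, with EDTA and aprotinin added. Plasma motilin immunoreactivity was measured by competitive RIA using a rabbit polyclonal antibody against native motilin residues 1–12 and ^125I-[Tyr^7] human motilin tracer.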

| half-life [min] | SMILES |
| --- | --- |
| 10.3 | CC[C@H](C)[C@H](NC(=O)[C@@H]1CCCN1C(=O)[C@@H](NC(=O)[C@@H](N)Cc1ccccc1)C(C)C)C(=O)N[C@@H](Cc1ccccc1)C(=O)N[C@H](C(=O)N[C@@H](Cc1ccc(O)cc1)C(=O)NCC(=O)N[C@@H](CCC(=O)O)C(=O)N[C@@H](CC(C)C)C(=O)N[C@@H](CCC(N)=O)C(=O)N[C@@H](CCCNC(=N)N)C(=O)N[C@@H](CCCCN)C(=O)N[C@@H](CCC(=O)O)C(=O)N[C@@H](CO)C(=O)N[C@@H](CCCCN)C(=O)N[C@@H](CCCCN)C(=O)N1CCC[C@H]1C(=O)N1CCC[C@H]1C(=O)N[C@@H](C)C(=O)N[C@@H](CCCCN)C(=O)N[C@@H](CC(C)C)C(=O)N[C@@H](C)C(=O)N[C@@H](C)C(=O)N[C@@H](CC(C)C)C(=O)N[C@@H](CCCCN)C(=O)N[C@@H](C)C(=O)O)[C@@H](C)O [Chimeric motilin (XI) (MG-d12/14)] (H-FVPIFTYGELQRKESKKPPAKLAALKA-OH; N-terminus and C-terminus assumed) |
| 13 | CC[C@H](C)[C@H](NC(=O)[C@@H]1CCCN1C(=O)[C@@H](NC(=O)[C@@H](N)Cc1ccccc1)C(C)C)C(=O)N[C@@H](Cc1ccccc1)C(=O)N[C@H](C(=O)N[C@@H](Cc1ccc(O)cc1)C(=O)NCC(=O)N[C@@H](CCC(=O)O)C(=O)N[C@@H](CC(C)C)C(=O)N[C@@H](CCC(N)=O)C(=O)N[C@@H](CCCNC(=N)N)C(=O)N[C@H](C(=O)N[C@@H](CCC(N)=O)C(=O)N[C@@H](CCC(N)=O)C(=O)N[C@@H](CCCCN)C(=O)N[C@@H](CCCCN)C(=O)N[C@@H](C)C(=O)N[C@@H](Cc1ccc(O)cc1)C(=O)N[C@@H](CO)C(=O)N1CCC[C@H]1C(=O)N[C@@H](CC(=O)O)C(=O)N[C@@H](CCCCN)C(=O)N[C@@H](CCC(=O)O)C(=O)N[C@@H](CCCNC(=N)N)C(=O)N[C@@H](CCCCN)C(=O)N1CCC[C@H]1C(=O)N1CCC[C@H]1C(=O)N[C@@H](C)C(=O)N[C@@H](CC(C)C)C(=O)N[C@@H](CCC(N)=O)C(=O)N1CCC[C@H]1C(=O)N[C@@H](CCCNC(=N)N)C(=O)O)C(C)C)[C@@H](C)O [Chimeric motilin (XII)(MGP1)] (H-FVPIFTYGELQRVQQKKAYSPDKERKPPALQPR-OH; N-terminus and C-terminus assumed) |
| 13.1 | CC[C@H](C)[C@H](NC(=O)[C@@H]1CCCN1C(=O)[C@@H](NC(=O)[C@@H](N)Cc1ccccc1)C(C)C)C(=O)N[C@@H](Cc1ccccc1)C(=O)N[C@H](C(=O)N[C@@H](Cc1ccc(O)cc1)C(=O)NCC(=O)N[C@@H](CCC(=O)O)C(=O)N[C@@H](CC(C)C)C(=O)N[C@@H](CCC(N)=O)C(=O)N[C@@H](CCCNC(=N)N)C(=O)N[C@H](C(=O)N[C@@H](CCC(N)=O)C(=O)N[C@@H](CCC(N)=O)C(=O)N[C@@H](CCCCN)C(=O)N[C@@H](CCCCN)C(=O)N[C@@H](C)C(=O)N[C@@H](Cc1ccc(O)cc1)C(=O)N[C@@H](CO)C(=O)N1CCC[C@H]1C(=O)N[C@@H](CC(=O)O)C(=O)N[C@@H](CCCCN)C(=O)N[C@@H](CCC(=O)O)C(=O)N[C@@H](CCCNC(=N)N)C(=O)N[C@@H](CCCCN)C(=O)N1CCC[C@H]1C(=O)N1CCC[C@H]1C(=O)N[C@@H](C)C(=O)N[C@@H](CCCCN)C(=O)N[C@@H](CC(C)C)C(=O)N[C@@H](CCC(N)=O)C(=O)N1CCC[C@H]1C(=O)N[C@@H](CCCNC(=N)N)C(=O)O)C(C)C)[C@@H](C)O [Chimeric motilin (XIII)(MGP2)] (H-FVPIFTYGELQRVQQKKAYSPDKERKPPAKLQPR-OH; N-terminus and C-terminus assumed) |
| 11.6 | CC[C@H](C)[C@H](NC(=O)[C@@H]1CCCN1C(=O)[C@@H](NC(=O)[C@@H](N)Cc1ccccc1)C(C)C)C(=O)N[C@@H](Cc1ccccc1)C(=O)N[C@H](C(=O)N[C@@H](Cc1ccc(O)cc1)C(=O)NCC(=O)N[C@@H](CCC(=O)O)C(=O)N[C@@H](CC(C)C)C(=O)N[C@@H](CCC(N)=O)C(=O)N[C@@H](CCCNC(=N)N)C(=O)N[C@H](C(=O)N[C@@H](CCC(N)=O)C(=O)N[C@@H](CCC(N)=O)C(=O)N[C@@H](CCCCN)C(=O)N[C@@H](CCCCN)C(=O)N[C@@H](CO)C(=O)N[C@@H](CCC(=O)O)C(=O)N[C@@H](CCCCN)C(=O)N[C@@H](CCCNC(=N)N)C(=O)N1CCC[C@H]1C(=O)N1CCC[C@H]1C(=O)N[C@@H](C)C(=O)N[C@@H](CCCCN)C(=O)N[C@@H](CC(C)C)C(=O)N[C@@H](CCC(N)=O)C(=O)N1CCC[C@H]1C(=O)N[C@@H](CCCNC(=N)N)C(=O)O)C(C)C)[C@@H](C)O [Chimeric motilin (Y)(MG-BR)] (H-FVPIFTYGELQRVQQKKSEKRPPAKLQPR-OH; N-terminus and C-terminus assumed) |
| 10.5 | CC[C@H](C)[C@H](NC(=O)[C@@H]1CCCN1C(=O)[C@@H](NC(=O)[C@@H](N)Cc1ccccc1)C(C)C)C(=O)N[C@@H](Cc1ccccc1)C(=O)N[C@H](C(=O)N[C@@H](Cc1ccc(O)cc1)C(=O)NCC(=O)N[C@@H](CCC(=O)O)C(=O)N[C@@H](CC(C)C)C(=O)N[C@@H](CCC(N)=O)C(=O)N[C@@H](CCCNC(=N)N)C(=O)N[C@H](C(=O)N[C@@H](CCC(N)=O)C(=O)N[C@@H](CCC(N)=O)C(=O)N[C@@H](CCCNC(=N)N)C(=O)N[C@@H](CCCCN)C(=O)NCC(=O)N[C@@H](CCC(=O)O)C(=O)N[C@@H](CO)C(=O)N[C@@H](CCCCN)C(=O)N[C@@H](CCCCN)C(=O)N1CCC[C@H]1C(=O)N1CCC[C@H]1C(=O)N[C@@H](C)C(=O)N[C@@H](CCCCN)C(=O)N[C@@H](CC(C)C)C(=O)N[C@@H](CCC(N)=O)C(=O)N1CCC[C@H]1C(=O)N[C@@H](CCCNC(=N)N)C(=O)O)C(C)C)[C@@H](C)O [Chimeric motilin (Z)(MG-i17G)] (H-FVPIFTYGELQRVQQRKGESKKPPAKLQPR-OH; N-terminus and C-terminus assumed) |
